Test results taken from patent US9732061B2, “Cinnoline derivatives useful as CB-1 receptor inverse agonists” (Janssen Pharmaceutica NV, priority 2015, dated 2017).

Columns and labels:
[1] = biological target: Human CB2R (Cannabanoid receptor 2) (Homo sapiens (Human), UniProt P34972); assay: CB-2 in vitro cAMP (HTRF) assay; type: cell-based; conditions: HEK-293 cells stably transfected with human CB2R, 250 nM Forskolin, mean where tested more than once
Description: (§1) CB1 and CB2 receptors are Gi-coupled GPCR. Activation of CB1 and CB2 receptors results in a decrease in cAMP production. An inverse agonist of the CB1 or CB2 receptor results in the opposite effect, an increase of cAMP production. The principle of this assay is based on HTRF® technology (Homogeneous Time-Resolved Fluorescence). The method is a competitive immunoassay between native cAMP produced by cells and the cAMP labeled with the fluorophore d2. The tracer binding is quantified by a Mab anti-cAMP labeled with Eu3+TBP-NHS Cryptate (supplied as part of the assay kit). The specific signal (i.e. energy transfer) is inversely proportional to the concentration of cAMP in the standard or sample.
(§2) Biological Example 1: CB-1 and CB-2 In Vitro Assay
(§3) Human CB1R (Cannabanoid receptor 1) was stably transfected in HEK-293 cells (DiscoveRx, cat: 93-0200C1). Human CB2R (Cannabanoid receptor 2) was stably transfected in HEK-293 cells (DiscoveRx, cat: 93-0201C1). Cell cultures were maintained in media: DMEM (Invitrogen Cat#12430-054) supplemented with 10% HI FBS (Invitrogen Cat#16140-071), 1% L-glutamine (Invitrogen Cat#25030-081), 0.2 mg/ml Hygromycin B (Invitrogen Cat#10687-010), 600 μg/mL G418 (Invitrogen Cat#10131-035), and 1×Penn/Strep (Invitrogen 15140-122). After cell expansion, aliquots were cryo-stored in media containing 5% DMSO (Pierce Cat#20684).
(§4) One day prior to experiments media was warmed to 37° C. and the cryo-stored cells were thawed in a 37° C. water bath. The cells were then added to media (10× volume) and the mixture was centrifugated at 1000 RPM for 5 min. The supernate was removed and the cells were re-suspended in media. A sample of the cell suspension was evaluated on a Cedex XS automated cell counter (Innovatis Systems) to determine viable cells/ml. Additional media was added to the cells to achieve a final cell density of 4E5 cells/mL. The cells were then plated into 384 well PDL white solid bottom plates (Greiner, Cat#781945) at 20 μL per well using a Multidrop (Thermo Scientific). Cells were removed from Row P (location of cAMP standards). Two columns of cells were plated into a clear bottom 384 well PDL coated plate (Greiner, Cat#781944) to view confluence the day of the assay. The cell plates were lidded and stored for 15 minutes in a hood, then transferred to an incubator (37° C., 5% CO2, 95% humidity) overnight.
(§5) DMSO was added to all wells of 384 well V bottom polystyrene plate (Greiner, Cat#781280) except to columns 1 and 13, rows O and P and wells M13-M23 and N13-N23. Test compounds (60 μL, 10 mM) were added to Column 1 and 13 (A1 through N1 and A13 through L13). Test compounds were serially diluted 1/3 by transferring and mixing 20 μl sample with 40 μL DMSO.
(§6) DMSO (40 μL) was added to wells of 384 well V bottom polystyrene plate: O2 through O11, M14 through M23, N14 through N23, and O14 through O23. AM630 (also known as [6-iodo-2-methyl-1-[2-(4-morpholinyl)ethyl]-1H-indol-3-yl](4-methoxyphenyl)-methanone, Cayman Chemical, Cat#10006974) (60 μL, 10 mM) was added to O1; and 1-(2,4-dichlorophenyl)-7-[(4-fluorophenyl)methylene]-4,5,6,7-tetrahydro-N-1-piperidinyl-1H-indazole-3-carboxamide (60 μL, 10 mM) was added to N13. The control was serially diluted 1/3 by transferring and mixing 20 μl sample with 40 μL DMSO. This process resulted 11 doses per control, 10 mM to […].
(§7) Cells plated the day prior to the assay in clear bottom plates were viewed on an inverse microscope to ensure confluency in the range of 60-75%. […]

[2] = biological target: Human CB1R (Cannabanoid receptor 1) (Homo sapiens (Human), UniProt P21554); assay: CB-1 in vitro cAMP (HTRF) assay; type: cell-based; conditions: HEK-293 cells stably transfected with human CB1R, 250 nM Forskolin, mean where tested more than once
Sequence of Human CB1R (Cannabanoid receptor 1) (P21554 whole entry): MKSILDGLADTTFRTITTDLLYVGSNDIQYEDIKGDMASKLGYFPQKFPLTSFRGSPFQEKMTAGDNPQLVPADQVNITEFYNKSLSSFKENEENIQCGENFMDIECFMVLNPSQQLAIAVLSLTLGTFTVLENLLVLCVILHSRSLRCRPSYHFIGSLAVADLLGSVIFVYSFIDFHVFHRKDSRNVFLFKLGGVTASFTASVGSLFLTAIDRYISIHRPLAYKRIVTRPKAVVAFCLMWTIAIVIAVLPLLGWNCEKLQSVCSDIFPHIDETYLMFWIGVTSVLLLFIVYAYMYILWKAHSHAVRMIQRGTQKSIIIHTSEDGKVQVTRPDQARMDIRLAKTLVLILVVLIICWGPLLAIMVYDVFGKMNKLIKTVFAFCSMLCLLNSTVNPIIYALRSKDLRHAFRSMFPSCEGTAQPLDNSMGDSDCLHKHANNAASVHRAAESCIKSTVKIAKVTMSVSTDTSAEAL
Description: as §1, §2, §3, §4, §5, §6, §7

Sequence of Human CB2R (Cannabanoid receptor 2) (P34972 whole entry): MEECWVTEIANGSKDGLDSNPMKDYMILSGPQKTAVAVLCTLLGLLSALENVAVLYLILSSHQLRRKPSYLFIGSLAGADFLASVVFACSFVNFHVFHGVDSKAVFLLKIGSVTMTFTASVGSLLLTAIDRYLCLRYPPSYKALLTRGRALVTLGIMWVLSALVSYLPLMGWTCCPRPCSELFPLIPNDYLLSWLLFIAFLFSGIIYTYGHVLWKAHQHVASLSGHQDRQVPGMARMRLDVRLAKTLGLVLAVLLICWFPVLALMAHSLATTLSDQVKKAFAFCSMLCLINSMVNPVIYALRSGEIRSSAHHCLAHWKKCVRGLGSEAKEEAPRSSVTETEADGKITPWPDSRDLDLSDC

Compound	EC50 [1] [nM]	EC50 [2] [nM]
COc1ccc(C(c2ccc(Cl)cc2)c2ccc3nncc(NC4CCN(S(=O)(=O)C(F)(F)F)CC4)c3c2)cc1 (stereo not shown) [Compound 35, 6-((4-chlorophenyl)(4-methoxyphenyl)methyl)-N-(1-(trifluoromethylsulfonyl)piperidin-4-yl)cinnolin-4-amine]	396	11
O=S(=O)(c1ccccc1)N1CCC(Nc2cnnc3ccc(C(c4ccc(Cl)cc4)c4ccc(Cl)cc4)cc23)CC1 [Compound 4, 6-(bis(4-chlorophenyl)methyl)-N-(1-(phenylsulfonyl)piperidin-4-yl)cinnolin-4-amine]	> 10000	35
O=S(=O)(N1CCC(Nc2cnnc3ccc(C(O)(c4ccc(Cl)cc4)c4ccc(Cl)cc4)cc23)CC1)C(F)(F)F [Compound 1, bis(4-chlorophenyl)(4-((1-((trifluoromethyl)sulfonyl)piperidin-4-yl)amino)cinnolin-6-yl)methanol]	> 10000	455
O=C(c1ccccc1)N1CCC(Nc2cnnc3ccc(C(c4ccc(Cl)cc4)c4ccc(Cl)cc4)cc23)CC1 [Compound 3, (4-((6-(bis(4-chlorophenyl)methyl)cinnolin-4-yl)amino)piperidin-1-yl)(phenyl)methanone]	> 10000	463
O=C(O)c1ccccc1CN1CCC(Nc2cnnc3ccc(C(c4ccc(Cl)cc4)c4ccc(Cl)cc4)cc23)CC1 [Compound 18, 2-((4-(6-(bis(4-chlorophenyl)methyl)cinnolin-4-ylamino)piperidin-1-yl)methyl)benzoic acid]	9900	9500
Clc1ccc(C(c2ccc(Cl)cc2)c2ccc3nncc(NC4CCN(CCc5ccccc5)CC4)c3c2)cc1 [Compound 30, 6-(bis(4-chlorophenyl)methyl)-N-(1-phenethylpiperidin-4-yl)cinnolin-4-amine]	> 10000	643
O=S(=O)(N1CCC(Nc2cnnc3ccc(C(c4ccc(Cl)cc4)c4ccc(Cl)cc4)cc23)CC1)C(F)(F)F [Compound 5, 6-(bis(4-chlorophenyl)methyl)-N-(1-((trifluoromethyl)sulfonyl)piperidin-4-yl)cinnolin-4-amine]	3350	13
Oc1ccc(CNc2cnnc3ccc(C(c4ccc(Cl)cc4)c4ccc(Cl)cc4)cc23)cc1 [Compound 21, 4-((6-(bis(4-chlorophenyl)methyl)cinnolin-4-ylamino)methyl)phenol]	5930	1160
O=C(O)c1cccc(CN2CCC(Nc3cnnc4ccc(C(c5ccc(Cl)cc5)c5ccc(Cl)cc5)cc34)CC2)c1 [Compound 12, 3-[[4-([6-[bis(4-chlorophenyl)methyl]cinnolin-4-yl]amino)piperidin-1-yl]methyl]benzoic acid]	6500	302
FC(F)(F)c1ccc(CNc2cnnc3ccc(C(c4ccc(Cl)cc4)c4ccc(Cl)cc4)cc23)cc1 [Compound 9, 6-(bis(4-chlorophenyl)methyl)-N-(4-(trifluoromethyl)benzyl)cinnolin-4-amine]	> 10000	40
O=C(O)c1ccc(S(=O)(=O)N2CCC(Nc3cnnc4ccc(C(c5ccc(Cl)cc5)c5ccc(Cl)cc5)cc34)CC2)o1 [Compound 14, 5-(4-(6-(bis(4-chlorophenyl)methyl)cinnolin-4-ylamino)piperidin-1-ylsulfonyl)furan-2-carboxylic acid]	5600	1280
O=C(O)c1ccc(CCN2CCC(Nc3cnnc4ccc(C(c5ccc(Cl)cc5)c5ccc(Cl)cc5)cc34)CC2)cc1 [Compound 31, 4-(2-(4-(6-(bis(4-chlorophenyl)methyl)cinnolin-4-ylamino)piperidin-1-yl)ethyl)benzoic acid]	> 10000	6640
O=C(O)c1cccc(S(=O)(=O)N2CCC(Nc3cnnc4ccc(C(c5ccc(Cl)cc5)c5ccc(Cl)cc5)cc34)CC2)c1 [Compound 11, 3-(4-(6-(bis(4-chlorophenyl)methyl)cinnolin-4-ylamino)piperidin-1-ylsulfonyl)benzoic acid]	5250	181
Clc1ccc(C(c2ccc(Cl)cc2)c2ccc3nncc(N4CCC(Nc5ccccc5)CC4)c3c2)cc1 [Compound 29, 1-[6-[bis(4-chlorophenyl)methyl]cinnolin-4-yl]-N-phenylpiperidin-4-amine]	> 10000	99
